Laboratory results as given in article PMC9230136 (Pharmaceutics, 2022).

Tests used:
MDA-MB-231 = assay: Antiproliferative assay (resazurin, 72 h); type: cell-based, human; settings: mean ± SE, 72 h
Description: (§1) Colon adenocarcinoma (HT-29) and T-cell leukemia (Jurkat) cells were grown in RPMI-1640 medium (Gibco, Milano, Italy). Promyelocytic leukemia cells (HL-60), non-small cell lung carcinoma (A549), cervix carcinoma (HeLa) and breast adenocarcinoma (MDA-MB-231) cells were grown in DMEM medium (Gibco, Milano, Italy). Both media were supplemented with 115 units/mL of penicillin G (Gibco, Milano, Italy), 115 μg/mL of streptomycin (Invitrogen, Milano, Italy) and 10% fetal bovine serum (Invitrogen, Milano, Italy). All the cell lines used were purchased from the American Type Culture Collection (ATCC, Manassas, VA, USA). Stock solutions (10 mM) of the compounds were obtained by dissolving them in DMSO.
(§2) The cells were seeded in 96-well plates at the appropriate density for each cell line. After 24 h, the cells were treated by performing serial 5-fold dilutions of the tested compounds starting from a concentration of 10 μM. All experimental conditions were tested in triplicate for statistical analysis. The plates were incubated for 72 h at 37 °C in a humidified 5% CO2 atmosphere. At the end of the incubation period, 10 μL of 100 μg/mL resazurin solution was added to each well; then, the plate was re-incubated for 3–4 h. The fluorescence of the wells in each plate was monitored using a Spark 10 M spectrophotometer (Tecan Group Ltd., Mannedorf, Switzerland) with a 535 nm excitation wavelength and a 600 nm emission wavelength.

HT-29 = assay: Antiproliferative assay (resazurin, 72 h); type: cell-based, human; settings: mean ± SE, 72 h
Description: as §1, §2

Jurkat = assay: Antiproliferative assay (resazurin, 72 h); type: cell-based, human; settings: mean ± SE, 72 h
Description: as §1, §2

HeLa = assay: Antiproliferative assay (resazurin, 72 h); type: cell-based, human
Description: as §1, §2

A549 = assay: Antiproliferative assay (resazurin, 72 h); type: cell-based, human
Description: as §1, §2

[1] = Homo sapiens, MDA-MB-231, Table 1
[2] = Homo sapiens, HeLa, Table 1, mean ± SE
[3] = Homo sapiens, A549, Table 1, mean ± SE

COc1cc(Nc2cc(C)nc3nc(NCc4cccc(C)c4)nn23)cc(OC)c1OC [Compound 7q, 5-Methyl-N^2-(3-methylbenzyl)-N^7-(3,4,5-trimethoxyphenyl)-[1,2,4]triazolo [1,5-a]pyrimidine-2,7-diamine]
IC50 (MDA-MB-231; [1]): 1680 ± 180 nM | IC50 (HT-29; Homo sapiens, HT-29, Table 1): 3460 ± 370 nM | IC50 (Jurkat; Homo sapiens, Jurkat, Table 1): 7.02 ± 0.62 µM | IC50 (HeLa; [2]): 1610 ± 130 nM | IC50 (A549; [3]): 3.88 ± 0.28 µM | melting point: 162 to 164 °C

Cc1cc(Nc2cccc(Cl)c2)n2nc(NCCCc3ccccc3)nc2n1 [Compound 8t]
IC50 (MDA-MB-231; Table 2): 1320 ± 870 nM | IC50 (HT-29; Table 2): 380 ± 30 nM | IC50 (Jurkat; Table 2): 0.14 ± 0.07 µM | IC50 (HeLa; Table 2, mean ± SE): 153 ± 10 nM | IC50 (A549; Table 2, mean ± SE): 0.26 ± 0.07 µM

COc1ccccc1CNc1nc2nc(C)cc(Nc3cc(OC)c(OC)c(OC)c3)n2n1 [Compound 7u, N^2-(2-Methoxybenzyl)-5-methyl-N^7-(3,4,5-trimethoxyphenyl)-[1,2,4]triazolo [1,5-a]pyrimidine-2,7-diamine]
IC50 (MDA-MB-231; [1]): 4400 ± 260 nM | IC50 (HT-29; Homo sapiens, HT-29, Table 1): > 10000 nM | IC50 (Jurkat; Homo sapiens, Jurkat, Table 1): > 10 µM | IC50 (HeLa; [2]): > 10000 nM | IC50 (A549; [3]): > 10 µM | melting point: 208 to 210 °C

COc1cc(Nc2cc(C)nc3nc(NCc4cccnc4)nn23)cc(OC)c1OC [Compound 7k, 5-Methyl-N^2-(pyridin-3-ylmethyl)-N^7-(3,4,5-trimethoxyphenyl)-[1,2,4]triazolo [1,5-a]pyrimidine-2,7-diamine]
IC50 (MDA-MB-231; [1]): 560 ± 67 nM | IC50 (HT-29; Homo sapiens, HT-29, Table 1): 3570 ± 480 nM | IC50 (Jurkat; Homo sapiens, Jurkat, Table 1): 6.85 ± 0.63 µM | IC50 (HeLa; [2]): 2980 ± 320 nM | IC50 (A549; [3]): 5.28 ± 0.65 µM | melting point: 178 to 180 °C

COc1cc(Nc2cc(C)nc3nc(NCc4ccc(C#N)cc4)nn23)cc(OC)c1OC [Compound 7x, 4-(((5-Methyl-7-((3,4,5-trimethoxyphenyl)amino)-[1,2,4]triazolo [1,5-a]pyrimidin-2-yl)amino)methyl)benzonitrile]
IC50 (MDA-MB-231; [1]): 1550 ± 110 nM | IC50 (HT-29; Homo sapiens, HT-29, Table 1): > 10000 nM | IC50 (Jurkat; Homo sapiens, Jurkat, Table 1): > 10 µM | IC50 (HeLa; [2]): 9010 ± 210 nM | IC50 (A549; [3]): > 10 µM | melting point: 178 to 180 °C

COc1ccc(Nc2nc3nc(C)cc(Nc4cc(OC)c(OC)c(OC)c4)n3n2)cc1 [Compound 7h, N2-(4-Methoxyphenyl)-5-methyl-N7-(3,4,5-trimethoxyphenyl)-[1,2,4]triazolo [1,5-a]pyrimidine-2,7-diamine]
IC50 (MDA-MB-231; [1]): 1170 ± 130 nM | IC50 (HT-29; Homo sapiens, HT-29, Table 1): 920 ± 90 nM | IC50 (Jurkat; Homo sapiens, Jurkat, Table 1): 1.01 ± 0.13 µM | IC50 (HeLa; [2]): 520 ± 30 nM | IC50 (A549; [3]): 3.76 ± 0.14 µM | melting point: 215 °C

COc1cc(Nc2cc(C)nc3nc(NCCc4ccc(F)cc4)nn23)cc(OC)c1OC [Compound 7aa, N^2-(4-Fluorophenethyl)-5-methyl-N^7-(3,4,5-trimethoxyphenyl)-[1,2,4]triazolo [1,5-a]pyrimidine-2,7-diamine]
IC50 (MDA-MB-231; [1]): > 10000 nM | IC50 (HT-29; Homo sapiens, HT-29, Table 1): 2830 ± 220 nM | IC50 (Jurkat; Homo sapiens, Jurkat, Table 1): 9.61 ± 0.89 µM | IC50 (HeLa; [2]): 2500 ± 270 nM | IC50 (A549; [3]): > 10 µM | melting point: 150 to 152 °C

C#Cc1cccc(Nc2cc(C)nc3nc(NCc4ccc(Cl)cc4)nn23)c1 [Compound 8c, N^7-(3-Ethynylphenyl)-N^2-(4-chlorobenzyl)-5-methyl-[1,2,4]triazolo [1,5-a]pyrimidine-2,7-diamine]
IC50 (MDA-MB-231; Homo sapiens, MDA-MB-231, Table 2): 1710 ± 60 nM | IC50 (HT-29; Homo sapiens, HT-29, Table 2): 490 ± 60 nM | IC50 (Jurkat; Homo sapiens, Jurkat, Table 2): 0.5 ± 0.06 µM | IC50 (HeLa; Homo sapiens, HeLa, Table 2, mean ± SE): 420 ± 50 nM | IC50 (A549; Homo sapiens, A549, Table 2, mean ± SE): 0.61 ± 0.2 µM | melting point: 190 to 192 °C

COc1cc(Nc2cc(C)nc3nc(Nc4ccc(F)cc4)nn23)cc(OC)c1OC [Compound 7e, N2-(4-Fluorophenyl)-5-methyl-N7-(3,4,5-trimethoxyphenyl)-[1,2,4]triazolo [1,5-a]pyrimidine-2,7-diamine]
IC50 (MDA-MB-231; [1]): 710 ± 70 nM | IC50 (HT-29; Homo sapiens, HT-29, Table 1): 690 ± 60 nM | IC50 (Jurkat; Homo sapiens, Jurkat, Table 1): 0.82 ± 0.001 µM | IC50 (HeLa; [2]): 390 ± 20 nM | IC50 (A549; [3]): 1.02 ± 0.08 µM | melting point: 247 °C

COc1cc(Nc2cc(C)nc3nc(NCc4ccccc4C)nn23)cc(OC)c1OC [Compound 7r, 5-Methyl-N^2-(2-methylbenzyl)-N^7-(3,4,5-trimethoxyphenyl)-[1,2,4]triazolo [1,5-a]pyrimidine-2,7-diamine]
IC50 (MDA-MB-231; [1]): 2990 ± 180 nM | IC50 (HT-29; Homo sapiens, HT-29, Table 1): > 10000 nM | IC50 (Jurkat; Homo sapiens, Jurkat, Table 1): 4.44 ± 0.47 µM | IC50 (HeLa; [2]): > 10000 nM | IC50 (A549; [3]): 1.92 ± 0.09 µM | melting point: 182 to 184 °C
